Assay results from US20230322789A1, “PYRAZOLOPYRIDAZINONE COMPOUND, AND PHARMACEUTICAL COMPOSITION AND USE THEREOF” (BroadenBio Co., Ltd., priority 2020, published 2023).
Counter-ions that a name gives are not always drawn.

Assays:
[1] = target: HPK1 (Homo sapiens (Human), UniProt Q92918); experiment: HPK1 kinase activity inhibition test (ADP-Glo, luminescence); assay type: biochemical; conditions: HPK1 5 nM, ATP 2 μM, read-out: IC50, inhibitory effects of compounds on HPK1 kinase activity
Summary of the method: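 HPK1 autophosphorylation was run without added substrate. Kinase and compound were preincubated 10 min at 25° C., then ATP was added for 60 min at 25° C. ADP formed was detected by ADP-Glo luminescence, and IC50 was taken from a four-parameter nonlinear fit.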

[2] = system: Human Jurkat-E6-1 cells; experiment: Measurement of IL-2 secretion of Jurkat cells by ELISA; assay type: cell-based; conditions: Homo sapiens, Jurkat E6.1, anti-CD3/anti-CD28 stimulation 24 hours, read-out: Percentage of the amount of IL-2 secreted from compound treated/DMSO-treated cells; for activity at 3 µM: test compound 3.0 μM; for activity at 1 µM: test compound 1.0 μM
Summary of the method: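 Jurkat-E6-1 cells pre-incubated with compound for 30 min at 37° C, then stimulated 24 h with plate-bound anti-CD3 plus soluble anti-CD28. Secreted IL-2 in medium quantified by sandwich ELISA against a standard curve; expressed as percent of DMSO-treated cells.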

Chain of HPK1 (Q92918 whole entry): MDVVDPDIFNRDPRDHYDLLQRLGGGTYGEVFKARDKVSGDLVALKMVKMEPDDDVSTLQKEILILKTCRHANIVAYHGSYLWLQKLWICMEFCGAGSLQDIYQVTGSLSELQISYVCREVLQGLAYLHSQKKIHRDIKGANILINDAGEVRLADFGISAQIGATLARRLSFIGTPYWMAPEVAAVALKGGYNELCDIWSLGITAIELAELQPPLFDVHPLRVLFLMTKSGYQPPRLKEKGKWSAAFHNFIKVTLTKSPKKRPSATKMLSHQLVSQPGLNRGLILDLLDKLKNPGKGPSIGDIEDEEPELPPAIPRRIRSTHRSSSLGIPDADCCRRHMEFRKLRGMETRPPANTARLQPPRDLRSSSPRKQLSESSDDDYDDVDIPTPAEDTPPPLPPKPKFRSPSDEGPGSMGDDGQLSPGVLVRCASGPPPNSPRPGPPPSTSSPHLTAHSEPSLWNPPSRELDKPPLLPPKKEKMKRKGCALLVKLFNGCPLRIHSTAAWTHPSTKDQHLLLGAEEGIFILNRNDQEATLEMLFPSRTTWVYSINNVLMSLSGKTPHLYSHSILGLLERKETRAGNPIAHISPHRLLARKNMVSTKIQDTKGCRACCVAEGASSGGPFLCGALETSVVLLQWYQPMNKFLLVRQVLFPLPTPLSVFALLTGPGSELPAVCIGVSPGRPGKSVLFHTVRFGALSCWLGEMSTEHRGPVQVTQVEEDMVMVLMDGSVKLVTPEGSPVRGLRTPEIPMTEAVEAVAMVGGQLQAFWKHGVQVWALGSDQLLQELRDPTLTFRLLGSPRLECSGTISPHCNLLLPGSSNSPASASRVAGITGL

Row | SMILES | IC50 [1] | activity at 3 µM [2] | activity at 1 µM [2]
1 | COc1cccc(F)c1-n1nc2c(-c3ccc(N4CCC(N5CCOCC5)CC4)cc3)n[nH]c2cc1=O [Compound 144, 5-(2-fluoro-6-methoxyphenyl)-3-(4-(4-morpholinopiperidin-1-yl)phenyl)-1H-pyrazolo[4,3-c]pyridazin-6(5H)-one] | ≤ 50 nM | 716% | –
2 | COc1cccc(F)c1-n1nc2c(-c3ccc(N4CCC(N5CCN(C)CC5)CC4)cc3)n[nH]c2cc1=O [Compound 145, 5-(2-fluoro-6-methoxyphenyl)-3-(4-(4-(4-methylpiperazin-1-yl)piperidin-1-yl)phenyl)-1H-pyrazolo[4,3-c]pyridazin-6(5H)-one] | ≤ 50 nM | 776% | –
3 | COc1cccc(F)c1-n1nc2c(-c3ccc(N4CCC(C)(N)CC4)cc3)n[nH]c2cc1=O [Compound 146, 3-(4-(4-amino-4-methylpiperidin-1-yl)phenyl)-5-(2-fluoro-6-methoxyphenyl)-1H-pyrazolo[4,3-c]pyridazin-6(5H)-one] | ≤ 50 nM | 537% | –
4 | COc1cccc(F)c1-n1nc2c(-c3ccc(N4CCC(C)(N(C)C)CC4)cc3)n[nH]c2cc1=O [Compound 147, 3-(4-(4-(dimethylamino)-4-methylpiperidin-1-yl)phenyl)-5-(2-fluoro-6-methoxyphenyl)-1H-pyrazolo[4,3-c]pyridazin-6(5H)-one] | ≤ 50 nM | 616% | –
5 | COc1cccc(F)c1-n1nc2c(-c3cnc(N4CCOCC4)s3)n[nH]c2cc1=O [Compound 148] | ≤ 50 nM | – | 531%
6 | COc1ccncc1-n1nc2c(-c3ccc(C4=CCN(C)CC4)cc3)n[nH]c2cc1=O [Compound 151, 5-(4-methoxypyrid-3-yl)-3-(4-(1-methyl-1,2,3,6-tetrahydropyridin-4-yl)phenyl)-1H-pyrazolo[4,3-c]pyridazin-6(5H)-one] | 50 to 500 nM | 230% | –
7 | COc1cccc(F)c1-n1nc2c(-c3ccc(N4CCN(C)CC4)cc3)n[nH]c2c(C)c1=O [Compound 154, 5-(2-fluoro-6-methoxyphenyl)-7-methyl-3-(4-(4-methylpiperazin-1-yl)phenyl)-1H-pyrazolo[4,3-c]pyridazin-6(5H)-one] | 50 to 500 nM | – | 382%
8 | COc1cccc(F)c1-n1nc2c(-c3ccc(N4CCOCC4)cc3)n[nH]c2c(C)c1=O [Compound 155, 5-(2-fluoro-6-methoxyphenyl)-7-methyl-3-(4-morpholinophenyl)-1H-pyrazolo[4,3-c]pyridazin-6(5H)-one] | 50 to 500 nM | 435% | –
9 | Cc1cccc(F)c1-n1nc2c(-c3ccc4c(c3)CN(C)CC4)n[nH]c2cc1=O [Compound 156, 5-(2-fluoro-6-methylphenyl)-3-(2-methyl-1,2,3,4-tetrahydroisoquinolin-7-yl)-1H-pyrazolo[4,3-c]pyridazin-6(5H)-one] | ≤ 50 nM | 849% | –
10 | COc1cc(C#N)cc(F)c1-n1nc2c(-c3ccc4c(c3)CN(C)CC4)n[nH]c2cc1=O [Compound 159, 3-fluoro-5-methoxy-4-(3-(2-methyl-1,2,3,4-tetrahydroisoquinolin-7-yl)-6-oxo-1H-pyrazolo[4,3-c]pyridazin-5(6H)-yl)benzonitrile] | ≤ 50 nM | 454% | –
11 | CCc1cccc(F)c1-n1nc2c(-c3ccc4c(c3)CN(C)CC4)n[nH]c2cc1=O [Compound 160, 5-(2-ethyl-6-fluorophenyl)-3-(2-methyl-1,2,3,4-tetrahydroisoquinolin-7-yl)-1H-pyrazolo[4,3-c]pyridazin-6(5H)-one] | ≤ 50 nM | 354% | –
12 | Cc1cccc(F)c1-n1nc2c(-c3ccc4c(c3)CNCC4)n[nH]c2cc1=O [Compound 161, 5-(2-fluoro-6-methylphenyl)-3-(1,2,3,4-tetrahydroisoquinolin-7-yl)-1H-pyrazolo[4,3-c]pyridazin-6(5H)-one hydrochloride] | ≤ 50 nM | 393% | –
13 | Cc1cccc(F)c1-n1nc2c(-c3ccc4c(c3)CN(CCO)CC4)n[nH]c2cc1=O [Compound 162, 5-(2-fluoro-6-methylphenyl)-3-(2-(2-hydroxyethyl)-1,2,3,4-tetrahydroisoquinolin-7-yl)-1H-pyrazolo[4,3-c]pyridazin-6(5H)-one] | ≤ 50 nM | 586% | –

The next lines start with results.

Row | IC50 [1] | SMILES | activity at 3 µM [2] | activity at 1 µM [2]
14 | ≤ 50 nM | COc1cccc(F)c1-n1nc2c(-c3ccc(N4CCN(C)C(C(C)(C)OC)C4)cc3)n[nH]c2cc1=O (centres unmarked) [Compound 127, 5-(2-fluoro-6-methoxyphenyl)-3-(4-(3-(2-methoxyprop-2-yl)-4-methylpiperazin-1-yl)phenyl)-1H-pyrazolo[4,3-c]pyridazin-6(5H)-one] | 758% | –
15 | ≤ 50 nM | Cc1cccc(F)c1-n1nc2c(-c3ccc(N4CCN(C)C(CO)C4)nc3)n[nH]c2cc1=O (centres unmarked) [Compound 128, 5-(2-fluoro-6-methylphenyl)-3-(6-(3-(hydroxymethyl)-4-methylpiperazin-1-yl)pyrid-3-yl)-1H-pyrazolo[4,3-c]pyridazin-6(5H)-one] | 472% | –
16 | ≤ 50 nM | Cc1cccc(F)c1-n1nc2c(-c3ccc(N4CCN(C)CC4CO)cc3)n[nH]c2cc1=O (centres unmarked) [Compound 130, 5-(2-fluoro-6-methylphenyl)-3-(4-(2-(hydroxymethyl)-4-methylpiperazin-1-yl)phenyl)-1H-pyrazolo[4,3-c]pyridazin-6(5H)-one] | 454% | –
17 | ≤ 50 nM | Cc1cccc(F)c1-n1nc2c(-c3ccc(N4CCN5CCOC[C@@H]5C4)cc3)n[nH]c2cc1=O [Compound 133, (S)-5-(2-fluoro-6-methylphenyl)-3-(4-(hexahydropyrazino[2,1-c][1,4]oxazin-8(1H)-yl)phenyl)-1H-pyrazolo[4,3-c]pyridazin-6(5H)-one] | 800% | –
18 | ≤ 50 nM | Cc1cccc(F)c1-n1nc2c(-c3ccc(N4CCN5CCOC[C@H]5C4)cc3)n[nH]c2cc1=O [Compound 134, (R)-5-(2-fluoro-6-methylphenyl)-3-(4-(hexahydropyrazino[2,1-c][1,4]oxazin-8(1H)-yl)phenyl)-1H-pyrazolo[4,3-c]pyridazin-6(5H)-one] | 527% | –
19 | ≤ 50 nM | COc1cccc(F)c1-n1nc2c(-c3ccc(N4CCN5CCOC[C@@H]5C4)cc3)n[nH]c2cc1=O [Compound 135, (S)-5-(2-fluoro-6-methoxyphenyl)-3-(4-(hexahydropyrazino[2,1-c][1,4]oxazin-8(1H)-yl)phenyl)-1H-pyrazolo[4,3-c]pyridazin-6(5H)-one] | 964% | –
20 | ≤ 50 nM | COc1cccc(F)c1-n1nc2c(-c3ccc(N4CCN5CCOC[C@H]5C4)cc3)n[nH]c2cc1=O [Compound 136, (R)-5-(2-fluoro-6-methoxyphenyl)-3-(4-(hexahydropyrazino[2,1-c][1,4]oxazin-8(1H)-yl)phenyl)-1H-pyrazolo[4,3-c]pyridazin-6(5H)-one] | 702% | –
21 | ≤ 50 nM | Cc1cccc(F)c1-n1nc2c(-c3ccc(N4CCn5ccnc5C4)cc3)n[nH]c2cc1=O [Compound 137, 3-(4-(5,6-dihydroimidazolo[1,2-a]pyrazin-7(8H)-yl)phenyl)-5-(2-fluoro-6-methylphenyl)-1H-pyrazolo[4,3-c]pyridazin-6(5H)-one] | 291% | –
22 | ≤ 50 nM | Cc1cccc(F)c1-n1nc2c(-c3ccc(N4CCC(O)CC4)cc3)n[nH]c2cc1=O [Compound 138, 5-(2-fluoro-6-methylphenyl)-3-(4-(4-hydroxylpiperidin-1-yl)phenyl)-1H-pyrazolo[4,3-c]pyridazin-6(5H)-one] | 873% | –
23 | ≤ 50 nM | COc1cccc(F)c1-n1nc2c(-c3ccc(N4CCC(O)CC4)cc3)n[nH]c2cc1=O [Compound 139, 5-(2-fluoro-6-methoxyphenyl)-3-(4-(4-hydroxylpiperidin-1-yl)phenyl)-1H-pyrazolo[4,3-c]pyridazin-6(5H)-one] | 315% | –
24 | ≤ 50 nM | COc1cccc(F)c1-n1nc2c(-c3ccc(N4CCC(C)(O)CC4)cc3)n[nH]c2cc1=O [Compound 140, 5-(2-fluoro-6-methoxyphenyl)-3-(4-(4-hydroxyl-4-methylpiperidin-1-yl)phenyl)-1H-pyrazolo[4,3-c]pyridazin-6(5H)-one] | 436% | –
25 | ≤ 50 nM | COc1cccc(F)c1-n1nc2c(-c3ccc(N4CCC(C)(OC)CC4)cc3)n[nH]c2cc1=O [Compound 141, 5-(2-fluoro-6-methoxyphenyl)-3-(4-(4-methoxy-4-methylpiperidin-1-yl)phenyl)-1H-pyrazolo[4,3-c]pyridazin-6(5H)-one] | 390% | –
26 | ≤ 50 nM | Cc1cccc(F)c1-n1nc2c(-c3ccc(N4CCC(N5CCOCC5)CC4)cc3)n[nH]c2cc1=O [Compound 142, 5-(2-fluoro-6-methylphenyl)-3-(4-(4-morpholinopiperidin-1-yl)phenyl)-1H-pyrazolo[4,3-c]pyridazin-6(5H)-one] | 708% | –
27 | ≤ 50 nM | Cc1cccc(F)c1-n1nc2c(-c3ccc(N4CCC(N5CCN(C)CC5)CC4)cc3)n[nH]c2cc1=O [Compound 143, 5-(2-fluoro-6-methylphenyl)-3-(4-(4-(4-methylpiperazin-1-yl)piperidin-1-yl)phenyl)-1H-pyrazolo[4,3-c]pyridazin-6(5H)-one] | 786% | –
28 | ≤ 50 nM | [2H]C([2H])([2H])N1CCc2ccc(-c3n[nH]c4cc(=O)n(-c5c(C)cccc5F)nc34)cc2C1 [Compound 157, 5-(2-fluoro-6-methylphenyl)-3-(2-(methyl-d3)-1,2,3,4-tetrahydroisoquinolin-7-yl)-1H-pyrazolo[4,3-c]pyridazin-6(5H)-one] | 935% | –
